Data reported in patent US10047105B2, “Gyrase inhibitors” (Merck Sharp & Dohme Corp., priority 2009, dated 2018).
In brackets after ≈: the same amount, converted by molar mass.

What was measured:
Format in all cases: cell-based
S. pneumoniae ATCC 51916 = experiment: MIC, S. pneumoniae; conditions: S. pneumoniae (Spn52); in µg/mL
S. aureus ATCC 13709 = experiment: MIC, antibacterial potency, S. aureus; conditions: S. aureus (SA); in µg/mL
E. coli 8 ATCC 25922 = experiment: MIC, E. coli 8 (wt); conditions: E. coli 8 (EC8)

CCc1[nH]c2nc(Oc3ccc4nccnc4c3)nc(N(C)C)c2c1Cl [700,962]
MIC Spn52 (S. pneumoniae ATCC 51916): 2 | MIC, SA (S. aureus ATCC 13709): <=0.5 | MIC EC8 (E. coli 8 ATCC 25922): > 8 µg/mL

CCc1[nH]c2nc(Oc3ccc4nccnc4c3)nc(N3CC(N)C3)c2c1Cl [700,963]
MIC Spn52 (S. pneumoniae ATCC 51916): 4 | MIC, SA (S. aureus ATCC 13709): 1 | MIC EC8 (E. coli 8 ATCC 25922): > 64 µg/mL

CCc1[nH]c2nc(Oc3cnc4c(c3)ncn4C)nc(Oc3cncc(OC)c3)c2c1Br [700,964]
MIC Spn52 (S. pneumoniae ATCC 51916): <=0.5 | MIC, SA (S. aureus ATCC 13709): <=0.5 | MIC EC8 (E. coli 8 ATCC 25922): > 64 µg/mL

CCc1[nH]c2nc(Oc3ccc4nccnc4c3)nc(Oc3cncnc3)c2c1Br [700,965]
MIC Spn52 (S. pneumoniae ATCC 51916): <=0.5 | MIC, SA (S. aureus ATCC 13709): <=0.5 | MIC EC8 (E. coli 8 ATCC 25922): 64 µg/mL (≈ 138 µM)

CCc1[nH]c2nc(Oc3cncc(C#N)c3)nc(Oc3cccc(OC)c3)c2c1Br [700,966]
MIC Spn52 (S. pneumoniae ATCC 51916): <=0.5 | MIC, SA (S. aureus ATCC 13709): <=0.5 | MIC EC8 (E. coli 8 ATCC 25922): > 64 µg/mL

CCc1[nH]c2nc(Sc3cncnc3)nc(N3CC4C(C3)C4(N)C(N)=O)c2c1Cl (stereo not drawn) [700,967]
MIC Spn52 (S. pneumoniae ATCC 51916): 4 | MIC, SA (S. aureus ATCC 13709): <=0.5 | MIC EC8 (E. coli 8 ATCC 25922): > 64 µg/mL

CCc1[nH]c2nc(Sc3cnc(N)nc3)nc(N3CC4C(C3)C4(N)C(N)=O)c2c1Cl (stereo not drawn) [700,968]
MIC Spn52 (S. pneumoniae ATCC 51916): >64 | MIC, SA (S. aureus ATCC 13709): 2 | MIC EC8 (E. coli 8 ATCC 25922): > 64 µg/mL

CCc1[nH]c2nc(Sc3cncc(C#N)c3)nc(N3CC4C(C3)C4(N)C(N)=O)c2c1Cl (stereo not drawn) [700,969]
MIC Spn52 (S. pneumoniae ATCC 51916): 2 | MIC, SA (S. aureus ATCC 13709): <=0.5 | MIC EC8 (E. coli 8 ATCC 25922): > 64 µg/mL

CCc1[nH]c2nc(Sc3cc(C(=O)O)c4cnccc4c3)nc(N3CC[C@@H](N)C3)c2c1Cl [700,970]
MIC Spn52 (S. pneumoniae ATCC 51916): 32 | MIC, SA (S. aureus ATCC 13709): 8 | MIC EC8 (E. coli 8 ATCC 25922): > 64 µg/mL

CCc1[nH]c2nc(Sc3ccc4cc5c([n+]([O-])c4c3)CCNC5)nc(N3CC4C(C3)C4(N)C(N)=O)c2c1Cl (stereo not drawn) [700,971]
MIC Spn52 (S. pneumoniae ATCC 51916): 2 | MIC, SA (S. aureus ATCC 13709): <=0.5 | MIC EC8 (E. coli 8 ATCC 25922): > 64 µg/mL

CCc1[nH]c2nc(Sc3ccc4cc5c([n+]([O-])c4c3)CCNC5)nc(N3CC4C(N)C4C3)c2c1Cl (stereo not drawn) [700,972]
MIC Spn52 (S. pneumoniae ATCC 51916): 1 | MIC, SA (S. aureus ATCC 13709): <=0.5 | MIC EC8 (E. coli 8 ATCC 25922): 4 µg/mL (≈ 7.87 µM)

CCc1[nH]c2nc(Sc3ccc4c(c3)C(=O)NC4)nc(N3CC4C(C3)C4(N)C(N)=O)c2c1Cl (stereo not drawn) [700,973]
MIC Spn52 (S. pneumoniae ATCC 51916): 2 | MIC, SA (S. aureus ATCC 13709): <=0.5 | MIC EC8 (E. coli 8 ATCC 25922): > 64 µg/mL

CCc1[nH]c2nc(Sc3ccc4c(c3)C(=O)NC4)nc(N3CC4C(N)C4C3)c2c1Cl (stereo not drawn) [700,974]
MIC Spn52 (S. pneumoniae ATCC 51916): 2 | MIC, SA (S. aureus ATCC 13709): <=0.5 | MIC EC8 (E. coli 8 ATCC 25922): 32 µg/mL (≈ 72.6 µM)

NC(=O)C1(N)C2CN(c3nc(Sc4cnc5nccnc5c4)nc4[nH]c(C5CC5)c(Cl)c34)CC21 (stereo not drawn) [700,975]
MIC Spn52 (S. pneumoniae ATCC 51916): 8 | MIC, SA (S. aureus ATCC 13709): 8 | MIC EC8 (E. coli 8 ATCC 25922): > 64 µg/mL

NC1C2CN(c3nc(Sc4cnc5nccnc5c4)nc4[nH]c(C5CC5)c(Cl)c34)CC12 (stereo not drawn) [700,976]
MIC Spn52 (S. pneumoniae ATCC 51916): 2 | MIC, SA (S. aureus ATCC 13709): 4 | MIC EC8 (E. coli 8 ATCC 25922): 8 µg/mL (≈ 17.7 µM)

N[C@@H]1CCN(c2nc(Sc3cnc4nccnc4c3)nc3[nH]c(C4CC4)c(Cl)c23)C1 [700,977]
MIC Spn52 (S. pneumoniae ATCC 51916): 4 | MIC, SA (S. aureus ATCC 13709): 16 | MIC EC8 (E. coli 8 ATCC 25922): 8 µg/mL (≈ 18.2 µM)

CC(C)(C)OC(=O)N[C@@H]1CCN(c2nc(Sc3cnc4nccnc4c3)nc3[nH]c(C4CC4)c(Cl)c23)C1 [700,978]
MIC Spn52 (S. pneumoniae ATCC 51916): >64 | MIC, SA (S. aureus ATCC 13709): >64 | MIC EC8 (E. coli 8 ATCC 25922): > 64 µg/mL

CCc1[nH]c2nc(Oc3ccc4nccnc4c3)nc(Oc3ccc4c(N)nc(N)nc4c3)c2c1Br [700,979]
MIC Spn52 (S. pneumoniae ATCC 51916): 4 | MIC, SA (S. aureus ATCC 13709): <=0.5 | MIC EC8 (E. coli 8 ATCC 25922): > 64 µg/mL

CCc1[nH]c2nc(Oc3ccc4nccnc4c3)nc(N3CC4C(C3)C4(N)C(N)=O)c2c1Br (stereo not drawn) [700,980]
MIC Spn52 (S. pneumoniae ATCC 51916): 2 | MIC, SA (S. aureus ATCC 13709): <=0.5 | MIC EC8 (E. coli 8 ATCC 25922): > 32 µg/mL

CCc1[nH]c2nc(Oc3cncc(C#N)c3)nc(N3CC4C(C3)C4(N)C(N)=O)c2c1Cl (stereo not drawn) [700,981]
MIC Spn52 (S. pneumoniae ATCC 51916): 16 | MIC, SA (S. aureus ATCC 13709): 16 | MIC EC8 (E. coli 8 ATCC 25922): > 32 µg/mL

CCc1[nH]c2nc(Oc3cncc(OC)c3)nc(Oc3cccc(C#N)c3)c2c1Br [700,982]
MIC Spn52 (S. pneumoniae ATCC 51916): <=0.5 | MIC, SA (S. aureus ATCC 13709): <=0.5 | MIC EC8 (E. coli 8 ATCC 25922): > 64 µg/mL

CCc1[nH]c2nc(Sc3ccc4c(N5CCC(N)CC5)nc(C)nc4c3)nc(N3CC[C@@H](N)C3)c2c1Cl [700,983]
MIC Spn52 (S. pneumoniae ATCC 51916): 32 | MIC, SA (S. aureus ATCC 13709): 32 | MIC EC8 (E. coli 8 ATCC 25922): 32 µg/mL (≈ 59.5 µM)
